Here are results for 18 compounds from paper PMC10330904 (Toxicology and applied pharmacology, 2023).

Structures are written as SMILES.

In data set [1] the test system is Acetylcholinesterase (AChE) (biochemical). The settings on record: cited from earlier work; for IC50: read-out: tox21-ache-p5 (IC50).
Data set [2] deals with Acetylcholinesterase (AChE) (with human microsomes). Particulars: read-out: tox21-ms-ache-p2 (IC50); cited from earlier work.
Data set [3] has as its system cell viability counter screens.

Regarding `CCOP(=S)(Oc1ccc([N+](=O)[O-])cc1)c1ccccc1` (centres unmarked), the “tox21-ache-p5 (IC50)” value in data set [1] is “inactive”. The IC50 in data set [2] is 2 µM.
In the case of `CCOP(=S)(OCC)SCn1nnc2ccccc2c1=O` [Azinphos-ethyl], the half-inhibitory concentration (IC50) in data set [1] was 35.5 µM; in data set [2], 0.25 µM.
On to `CCOP(=S)(OCC)Oc1nc(Cl)c(Cl)cc1Cl` [Chlorpyrifos], for which the IC50 in data set [1] was 79.4 µM; in data set [2], 0.25 µM.
Consider `CCOP(=S)(OCC)Oc1ccc2c(C)c(Cl)c(=O)oc2c1` [Coumaphos], for which the IC50 in data set [1] is 53.7 µM; in data set [2], 1.07 µM.
For the compound `CCOP(=S)(OCC)SC(CCl)N1C(=O)c2ccccc2C1=O` (centres unmarked) [Dialifor], the results for the IC50 in data set [1] and in data set [2] were 63.1 µM and 1.41 µM, respectively.
For `COP(N)(=S)Oc1ccccc1C(=O)OC(C)C` (centres unmarked) [Isocarbophos], in data set [1], the “tox21-ache-p5 (IC50)” value was “inactive”. Also, in data set [2], the IC50 is 2.82 µM.
Take `CCOP(=S)(OCC)Oc1ccc([N+](=O)[O-])cc1` [Parathion]: the figures for the half-maximal inhibitory concentration (IC50) in data set [1] and in data set [2] were 24.6 µM and 0.74 µM, respectively.
Consider `CCOP(=S)(OCC)SCn1c(=O)oc2cc(Cl)ccc21` [Phosalone], for which the “tox21-ache-p5 (IC50)” value in data set [1] was “inactive”. Besides, in data set [2], the half-maximal inhibitory concentration (IC50) is 5.89 µM.
On to `CCOP(=S)(OCC)O/N=C(\C#N)c1ccccc1` [Phoxim], for which the IC50 is 56.2 µM in data set [1] and 1.66 µM in data set [2].
As to `CCOP(=S)(OCC)Oc1cnc2ccccc2n1` [Quinalphos], the IC50 in data set [1] was 79.4 µM; in data set [2] it was 1 µM.
For the compound `CCOP(=S)(OCC)SCSC(C)(C)C` [Terbufos], the “tox21-ache-p5 (IC50)” value in data set [1] was “inactive”. Also, the IC50 in data set [2] is 47.9 µM.
For the compound `Oc1c(Cl)cc(Cl)cc1Sc1cc(Cl)cc(Cl)c1O` [bithionol], the “viability assay hit rate” value in data set [3] stood at 98.78%.
For the compound `[H]/N=C(\N/C(=N/[H])NCCCCCCNC(=N)NC(=N)Nc1ccc(Cl)cc1)Nc1ccc(Cl)cc1` [chlorhexidine], the “viability assay hit rate” value in data set [3] stood at 97.56%.
`O=C1C(Cl)=C(Cl)C(=O)c2ccccc21` [dichlone]: the “viability assay hit rate” value in data set [3] is given as 97.56%.
On the same count and under the same terms, the same measure for `Oc1c(Cl)cc(Cl)c(Cl)c1Cc1c(O)c(Cl)cc(Cl)c1Cl` [hexachlorophene]: 97.56%; for `CC1=CC(=O)c2ccccc2C1=O` [menadione]: 97.56%; for `Cc1cc(C(C)(C)CC(C)(C)C)ccc1OCCOCC[N+](C)(C)Cc1ccccc1.[Cl-]` [methylbenzethonium chloride]: 97.56%.
On the same count and under the same terms, next, `Oc1cc(Cl)ccc1Oc1ccc(Cl)cc1Cl` [triclosan]: 97.56%.

What is called IC50 is the concentration that inhibits the measured activity by half.
